{"source": "paper PMC11838007", "about": "“Contribution of telacebec to novel drug regimens in a murine tuberculosis model” (Antimicrobial Agents and Chemotherapy, 2024)", "key": {"Rv0678_J4 mutant": {"tested_on": "Rv0678_J4 mutant", "type": "cell-based, Mycobacterium tuberculosis"}, "Rv0678_2 mutant": {"tested_on": "Rv0678_2 mutant", "type": "cell-based, Mycobacterium tuberculosis"}}, "data": [{"compound": "CCc1nc2ccc(Cl)cn2c1C(=O)NCc1ccc(N2CCC(c3ccc(OC(F)(F)F)cc3)CC2)cc1", "note": "[Telacebec, telacebec]", "values": [{"measurement": "MIC", "setting": "Rv0678_J4 mutant", "result": 4, "unit": "ng/mL"}, {"measurement": "MIC", "setting": "Rv0678_2 mutant", "result": 8, "unit": "ng/mL"}]}]}
